Here are results for 13 compounds from PubChem BioAssay (NCI).

Assay in all cases: NCI-60 cell line screen, 48 h
For assay [1], the system named is SK-OV-3 ovarian.
Assay [2] deals with SK-MEL-2 melanoma.
The test system of assay [3] is NCI-H23 lung.
In assay [4] the test system is SF-539 CNS.
Assay [5] has as its system SNB-19 CNS.
In assay [6] the test system is OVCAR-3 ovarian.
Assay [7] relates to DU-145 prostate.
Assay [8] relates to HT29 colon.
In assay [9] the test system is UO-31 renal.
In assay [10] the test system is OVCAR-4 ovarian.
Assay [11] deals with IGROV1 ovarian.
The test system of assay [12] is A498 renal.
The test system of assay [13] is NCI-H522 lung.
Assay [14] has as its system HOP-92 NSCLC.
Assay [15] deals with BT-549 breast.
Assay [16] relates to U251 CNS.
Assay [17] concerns T-47D breast.

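All cell lines were grown in 96-well plates and treated with compound for 48 hours. The concentration for full growth arrest is given as TGI.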

With `COc1ccc(COCC[C@H](C)OC2OC(CO[Si](C)(C)C(C)(C)C)C(O)C(O)C2O)cc1` (stereo partly specified), the TGI in assay [1], in assay [2], in [3], in assay [4], in assay [5] and in assay [6] was more than 100 µM throughout. Besides, the TGI in [7], in assay [8], in [9], in [10], in [11] and in [12] was more than 100 µM each time. Moreover, the TGI in assay [13], in [14], in assay [15], in assay [16] and in [17] was more than 100 µM throughout.
For the compound `Cn1c2ncccc2n2c(=O)cc(O)cc12`, the TGI in assay [1], in assay [2], in [3], in [4], in [5] and in [6] was more than 100 µM throughout. The TGI in assay [7] is more than 100 µM; in assay [8], more than 100 µM; in assay [9] it was more than 100 µM; in assay [10], more than 100 µM; in [11], 31.5 µM; in assay [12], more than 100 µM. The TGI was more than 100 µM in assay [13]; 81.4 µM in assay [14]; more than 100 µM in [15]; more than 100 µM in assay [16]; 95.7 µM in [17].
For the compound `COC1(OC)CCN(Cc2ccccc2)C1=O`, the TGI in [1] is more than 100 µM; in assay [2], 34 µM; in assay [3], 43.8 µM; in assay [4] it was 28.6 µM; in assay [5] it was 34.9 µM; in assay [6], 23.7 µM. In addition, the TGI in assay [7] is 29.2 µM; in assay [8], 21.4 µM; in assay [9], 22.8 µM; in assay [10], 30.6 µM; in assay [11] it was 26.8 µM; in assay [12], 44 µM. Further, the TGI in [13] was more than 100 µM; in assay [14], 23.4 µM; in [15], 31 µM; in [16] it was 34.1 µM; in assay [17], 18.8 µM.
`Nc1c(F)c(F)c2c(c1F)N(CCCCCl)c1ccccc1S2`: the TGI in assay [1], in [2], in [3], in assay [4], in assay [5] and in assay [6] was more than 100 µM in each case. For the same compound, the TGI in assay [7], in assay [8], in [9], in assay [10], in assay [11] and in assay [12] was more than 100 µM throughout. Further, the TGI in [13], in [14], in [15], in assay [16] and in assay [17] was more than 100 µM each time.
Consider `C=C1N(C)c2ccc(S(=O)(=O)c3ccc4c(c3)C(C)(C)C(=C)N4C)cc2C1(C)C`, for which the TGI in assay [1], in [2], in assay [3], in assay [4], in assay [5] and in assay [6] was more than 100 µM in each case. The TGI in assay [7], in [8], in assay [9], in assay [10], in [11] and in [12] was more than 100 µM throughout. Further, the TGI in [13] is 58.7 µM; in assay [14], 41.1 µM; in assay [15], 87.9 µM; in assay [16] it was more than 100 µM; in assay [17], more than 100 µM.
Regarding `O=C1c2ccccc2C(=O)c2c1oc1cc(O)c(Cl)cc21`, the TGI in [1] came out at 40 µM; in assay [2], 7.16 µM; in [3], 3.27 µM; in [4], 16.1 µM; in [5] it was 28 µM; in assay [6], 8.52 µM. In addition, the TGI in [7] turned out to be 13.5 µM; in assay [8] it was 3.89 µM; in assay [9] it was 26.6 µM; in assay [10], 23.4 µM; in assay [11], 31.3 µM; in assay [12], 34 µM. Besides, the TGI in assay [13] stood at 26.9 µM; in [14], 25.9 µM; in assay [15], 15.5 µM; in assay [16] it was 22.3 µM; in assay [17], 48.6 µM.
Turning to `O=S(=O)(O)c1c(Cl)c(Cl)c(O)c2ncccc12`, the TGI was 25.8 µM in [1]; 45 µM in [2]; 29.6 µM in assay [3]; more than 56.7 µM in assay [4]; 44.1 µM in assay [5]; 42.3 µM in assay [6]. The TGI in [7] stood at 61.4 µM; in assay [8], 24 µM; in assay [9], 22.7 µM; in assay [10], 47.1 µM; in assay [11], 16 µM; in assay [12], 26 µM. Also, the TGI stood at 21.4 µM in assay [13]; 47.8 µM in [14]; 67.3 µM in [15]; 47.2 µM in [16]; 22 µM in assay [17].
Take `CN(C)CCC(=O)[C@@]1(O)CC[C@H]2[C@@H]3CC=C4C[C@@H](O)CC[C@]4(C)[C@H]3CC[C@@]21C`: the TGI in assay [1] is more than 66.8 µM; in [2] it was 37.1 µM; in [3], 56.1 µM; in assay [4], 8.61 µM; in [5] it was more than 64.8 µM; in [6], 29.7 µM. In addition, the TGI in assay [7] is 19.9 µM; in assay [8], 37.5 µM; in [9], 31.7 µM; in assay [10] it was more than 78.2 µM; in assay [11], 34.3 µM; in assay [12], 29.7 µM. In addition, the TGI stood at 25.3 µM in assay [13]; 39.7 µM in assay [14]; 32.8 µM in assay [15]; 31 µM in [16]; 23.5 µM in assay [17].
`COC(=O)[C@]12CC[C@H]3CN(S(=O)(=O)c4ccc(C)cc4)[C@H]([C@H]31)[C@H](c1ccco1)N2S(=O)(=O)c1ccc(C)cc1`: the TGI in assay [1], in assay [2], in assay [3], in assay [4], in assay [5] and in [6] was more than 100 µM in each case. In addition, the TGI in assay [7], in [8], in assay [9], in assay [10], in [11] and in [12] was more than 100 µM throughout. Besides, the TGI in [13] was more than 100 µM; in assay [14], 62.8 µM; in assay [15], 91.6 µM; in assay [16] it was more than 100 µM; in assay [17], 49.5 µM.
As to `C=CC(C)(C)NC(C(=O)N1CCC[C@H]1c1nc(-c2nc(C(=O)OCC=C(C)C)c(C)o2)c(C)o1)C(C)C` (stereo partly specified), the TGI was more than 100 µM in [1]; more than 73.4 µM in assay [2]; more than 100 µM in assay [3]; more than 68.7 µM in assay [4]; more than 100 µM in assay [5]; more than 100 µM in assay [6]. In addition, the TGI is more than 100 µM in [7]; more than 86.8 µM in assay [8]; more than 65.1 µM in [9]; more than 100 µM in assay [10]; more than 100 µM in assay [11]; more than 100 µM in assay [12]. Besides, the TGI in assay [13] is more than 100 µM; in assay [14], more than 100 µM; in [15], more than 100 µM; in assay [16], more than 78.1 µM; in assay [17], more than 100 µM.
For the compound `COc1cccc(CCn2c(N)c(-c3cc(Cl)cc(Cl)c3)c3ccc([N+](=O)[O-])cc3c2=O)c1`, the TGI in assay [1] was more than 100 µM; in assay [2], more than 31.4 µM; in [3] it was 5.99 µM; in [4] it was more than 100 µM; in assay [5], more than 44 µM; in assay [6], more than 100 µM. Besides, the TGI in assay [7] was more than 25.3 µM; in assay [8], more than 100 µM; in assay [9] it was 25.5 µM; in assay [10] it was more than 100 µM; in assay [11], 22.7 µM; in assay [12], more than 28.8 µM. The TGI in assay [13] is more than 26.6 µM; in assay [14], 7.93 µM; in [15], more than 59.5 µM; in [16], more than 49.3 µM; in assay [17] it was more than 24.8 µM.
Regarding `CC/C(Cl)=N\OC(=O)Nc1ccc(F)c(Cl)c1`, the TGI in [1] was 32.5 µM; in assay [2] it was 33.5 µM; in [3], 45.7 µM; in [4], 37.3 µM; in assay [5] it was 20.7 µM; in assay [6], 8.03 µM. Further, the TGI in assay [7] was 34.2 µM; in assay [8], 55.2 µM; in assay [9] it was 32.3 µM; in assay [10], 31.1 µM; in assay [11] it was 34.7 µM; in assay [12] it was 30.8 µM. Also, the TGI worked out at 3.44 µM in assay [13]; 9.41 µM in [14]; 51.3 µM in assay [15]; 33.9 µM in assay [16]; 21.3 µM in assay [17].
Consider `CCn1c2ccccc2c2ccc(C3C4C(=O)N(c5cccc6ccccc56)C(=O)C4ON3C(C(N)=O)c3ccccc3)cc21` (stereo unspecified), for which the TGI in [1], in assay [2], in assay [3], in assay [4], in assay [5] and in [6] was more than 25 µM throughout. Besides, the TGI was more than 25 µM in assay [7]; more than 25 µM in [8]; more than 25 µM in [9]; more than 25 µM in [10]; more than 25 µM in assay [11]; 6.96 µM in [12]. In addition, the TGI in [13], in [14], in assay [15], in assay [16] and in [17] was more than 25 µM in each case.
